Assay results taken from patent US6528275B1, “Substrates and inhibitors of proteolytic enzymes” (Peptide Therapeutics Limited, priority 1996, dated 2003).
Non-standard residues stand in square brackets, D forms with d. Residues, ends and D or L forms follow the SMILES beside them. Tyr(3-NO2) = N[C@@H](Cc1ccc(O)c([N+](=O)[O-])c1)C(=O)O; Hyp = O=C(O)[C@@H]1C[C@@H](O)CN1; 3Pal = N[C@@H](Cc1cccnc1)C(=O)O; Tic = O=C(O)[C@@H]1Cc2ccccc2CN1; hLeu = CC(C)CC[C@H](N)C(=O)O; Ac6c = NC1(C(=O)O)CCCCC1; Nle = CCCC[C@H](N)C(=O)O; 2Abz = Nc1ccccc1C(=O)O

These molecules were tested against T1, Der pI (Dermatophagoides pteronyssinus, UniProt P08176) (assay: Der pI substrate assay with FRET peptides (fluorescence, Km, kcat/Km)). Details: purified Der pI; peptides SEQ ID Nos. 77-85.
T1 construct: tissue SmithKline-Beecham, U.K (crude mite extract); host or cells: crude house dust mite extract
T1 sequence (P08176 99-320): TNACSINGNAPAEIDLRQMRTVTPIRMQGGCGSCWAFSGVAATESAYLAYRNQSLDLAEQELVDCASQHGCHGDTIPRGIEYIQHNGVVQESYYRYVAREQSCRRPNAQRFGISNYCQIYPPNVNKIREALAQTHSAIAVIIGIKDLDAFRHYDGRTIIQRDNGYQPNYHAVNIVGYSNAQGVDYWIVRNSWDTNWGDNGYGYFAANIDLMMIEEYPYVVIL
Format: biochemical, house dust mite
Design: key: NS-Not Substrate: Not hydrolysed by Der pI; NM-Substrate but not measured: Substrate for Der pI but not measured
Method: (§1) Using the general techniques described above, the following compounds were prepared and assayed as potential substrates against Der pI purified as described above.
(§2) Each mixture of 20 compounds in the libraries of the apparatus described herein was screened at a concentration of 1.0 μM per compound in an assay against the cysteinyl protease Der pI.
(§3) Plate assays were carried out in 96 well plate format, using 0.1 ug of Der pI per 100 μL assay volume in each well and using 20 μM of the substrate. All assays were performed in Assay Buffer (AB; 50 mM potassium phosphate, pH 8.25 containing 1 mM ethylenediaminetetraacetic acid (EDTA) and 1 mM dithiothreitol (DTT). The Der pI enzyme is pre-activated by addition of DTT and this in incubated at room temperature for 5 min. prior to initiation of the assay. As an example for the screening methodology, each well contains a 5 μL of a 20 μM solution of the test compound in DMSO, 10 μL of a 200 μM aqueous solution of the substrate, 2, and 85 μL of Der pI in AB is added to initiate the reaction. Enzyme activity is monitored by fluorescence using 320 nm for excitation and 420 nm for the emission wavelengths using a Labsystems Fluroskan Ascent machine. Kinetic measurements were carried out using a Hitachi F-4500 Fluorescence Spectrophotometer.

Row | Molecule | substrate or not substrate for Der pI (symbols in Measured Km)
1 | Abz-Deg-Ala-Nle-Ser-Tyr(NO2)-Asp-NH2 | NS
2 | Abz-p.Aba-Nle-Ser-Tyr(NO2)-Asp-NH2 | NS
3 | Abz-Val-Aib-Nle-Ser-Tyr(NO2)-Asp-NH2 | NS
4 | Bz-Val-Ala-Statine-Ser-eAha-NH2 | NS
5 | Abz-Cmpi-Nle-Ser-Tyr(NO2)-Asp-NH2 | NS
6 | Abz-Val-Ala-Aib-Ser-Tyr(NO2)-Asp-NH2 | NS
7 | Abz-Val-(NMe)Ala-Nle-Ser-Tyr(NO2)-Asp-NH2 | NS
8 | Abz-Val-Ala-(NMe)Nle-Ser-Tyr(NO2)-Asp-NH2 | NS
9 | nBu-D.Ser-D.Nle-D.Ala-D.Val-p.Aba-NH2 | NS

Each molecule was assayed against T1, Der pI in the same assay as above. Details: purified Der pI; peptides SEQ ID Nos. 1-76; read-out: Measured Km.
Format: biochemical, house dust mite
Method: as §1, §2, §3

Row | Km | Molecule
10 | > 10 µM | CC(C)CC[C@H](NC(=O)[C@H](C)NC(=O)[C@H](Cc1cccnc1)NC(=O)c1ccccc1N)C(=O)N[C@@H](CO)C(=O)N[C@@H](Cc1ccc(O)c([N+](=O)[O-])c1)C(=O)N[C@@H](CC(=O)O)C(N)=O [Abz-3pyr-Ala-hLeu-Ser-Tyr(NO2)-Asp-NH2] (H-[2Abz][3Pal]A[hLeu]S[Tyr(3-NO2)]D-NH2)
11 | > 20 µM | CC(C)[C@H](NC(=O)c1ccccc1N)C(=O)N[C@@H](C)C(=O)N[C@@H](Cc1c[nH]cn1)C(=O)N[C@@H](CO)C(=O)N[C@@H](Cc1ccc(O)c([N+](=O)[O-])c1)C(=O)N[C@@H](CC(=O)O)C(N)=O [Abz-Val-Ala-His-Ser-Tyr(NO2)-Asp-NH2] (H-[2Abz]VAHS[Tyr(3-NO2)]D-NH2)
12 | > 15 µM | CC(C)CC[C@H](NC(=O)[C@H](C)NC(=O)[C@H](CCCCN)NC(=O)c1ccccc1N)C(=O)N[C@@H](CO)C(=O)N[C@@H](Cc1ccc(O)c([N+](=O)[O-])c1)C(=O)N[C@@H](CC(=O)O)C(N)=O [Abz-Lys-Ala-hLeu-Ser-Tyr(NO2)-Asp-NH2] (H-[2Abz]KA[hLeu]S[Tyr(3-NO2)]D-NH2)

Row | Molecule | Km
13 | Abz-Bip-Ala-hLeu-Abu-Tyr(NO2)-Asp-NH2 | 1.7 µM

These molecules were tested against T1, Der pI in the same assay as above. Details: purified Der pI; peptides SEQ ID Nos. 1-76.
Format: biochemical, house dust mite
Design: key: NS indicates that the peptide was not hydrolysed by Der pI.; NM indicated that the peptide was a substrate for Der pI, but the Km was not measured.; NM^a indicates that the peptide was a substrate for Der pI, and its cleavage was followed by HPLC-MS showing hydrolysis to occur between-Nle-Ser-
Method: as §1, §2, §3

Row | Molecule | substrate or not substrate for Der pI (symbols in Measured Km)
14 | CCCC[C@H](NC(=O)[C@H](C)NC(=O)[C@@H](N)C(C)C)C(=O)N[C@@H](CO)C(=O)N[C@@H](Cc1ccc(O)c([N+](=O)[O-])c1)C(N)=O [H-Val-Ala-Nle-Ser-Tyr(NO2)-NH2] (H-VA[Nle]S[Tyr(3-NO2)]-NH2) | NS
15 | Abz-3.Pyr-Val-Ala-Nle-Ser-Tyr(NO2)-Asp-NH2 | NM
16 | Chex-Val-Ala-Nle-Ser-Tyr(NO2)-NH2 | NM^a
17 | CCCC[C@H](NC(=O)c1ccccc1N)C(=O)N[C@@H](CO)C(=O)N[C@@H](Cc1ccc(O)c([N+](=O)[O-])c1)C(=O)N[C@@H](CC(=O)O)C(N)=O [Abz-Nle-Ser-Tyr(NO2)-Asp-NH2] (H-[2Abz][Nle]S[Tyr(3-NO2)]D-NH2) | NS
18 | CCCC[C@H](NC(=O)[C@H](C)NC(=O)[C@@H](N)C(C)C)C(=O)N[C@@H](CO)C(=O)N[C@@H](Cc1ccc(O)c([N+](=O)[O-])c1)C(=O)N[C@@H](CC(=O)O)C(N)=O [H-Val-Ala-Nle-Ser-TyrNO2-Asp-NH2] (H-VA[Nle]S[Tyr(3-NO2)]D-NH2) | NS
19 | CC(C)CC[C@H](NC(=O)C1(NC(=O)[C@@H](NC(=O)c2ccccc2N)C(C)C)CCCCC1)C(=O)N[C@@H](CO)C(=O)N[C@@H](Cc1ccc(O)c([N+](=O)[O-])c1)C(=O)N[C@@H](CC(=O)O)C(N)=O [Abz-Val-ACH-hLeu-Ser-Tyr(NO2)-Asp-NH2] (H-[2Abz]V[Ac6c][hLeu]S[Tyr(3-NO2)]D-NH2) | NS
20 | CCCC[C@H](NC(=O)[C@H](C)NC(=O)[C@@H](NC(=O)c1ccccc1N)C(C)C)C(=O)N[C@@H](CO)C(=O)N[C@@H](Cc1ccccc1)C(=O)N[C@@H](CC(=O)O)C(N)=O [Abz-Val-Ala-Nle-Ser-Phe-Asp-NH2] (H-[2Abz]VA[Nle]SFD-NH2) | NM
21 | CC(C)CC[C@H](NC(=O)[C@@H](CCC(N)=O)NC(=O)[C@@H](NC(=O)c1ccccc1N)C(C)C)C(=O)N[C@@H](CO)C(=O)N[C@@H](Cc1ccc(O)c([N+](=O)[O-])c1)C(=O)N[C@@H](CC(=O)O)C(N)=O [Abz-Va1-DGln-hLeu-Ser-Tyr(NO2)-Asp-NH2] (H-[2Abz]V[dQ][hLeu]S[Tyr(3-NO2)]D-NH2) | NS
22 | CCCC[C@H](NC(=O)[C@H](C)NC(=O)[C@@H](NC(=O)c1ccccc1N)C(C)C)C(=O)N[C@@H](CO)C(=O)N[C@@H](Cc1ccc(O)c([N+](=O)[O-])c1)C(N)=O [Abz-Val-Ala-Nle-Ser-Tyr(NO2)-NH2] (H-[2Abz]VA[Nle]S[Tyr(3-NO2)]-NH2) | NM
23 | CCCC[C@H](NC(=O)[C@H](C)NC(=O)[C@@H](NC(=O)[C@H](Cc1ccc(O)cc1)NC(=O)c1ccccc1N)C(C)C)C(=O)N[C@@H](CO)C(=O)N[C@@H](Cc1ccc(O)c([N+](=O)[O-])c1)C(=O)N[C@@H](CC(=O)O)C(N)=O [Abz-Tyr-Val-Ala-Nle-Ser-Tyr(NO2)-Asp-NH2] (H-[2Abz]YVA[Nle]S[Tyr(3-NO2)]D-NH2) | NM
24 | CC(C)CC[C@H](NC(=O)[C@H](Cc1cccnc1)NC(=O)[C@@H](NC(=O)c1ccccc1N)C(C)C)C(=O)N[C@@H](CO)C(=O)N[C@@H](Cc1ccc(O)c([N+](=O)[O-])c1)C(=O)N[C@@H](CC(=O)O)C(N)=O [Abz-Val-3pyr-hLeu-Ser-Tyr(NO2)-Asp-NH2] (H-[2Abz]V[3Pal][hLeu]S[Tyr(3-NO2)]D-NH2) | NS
25 | CC(C)CC[C@H](NC(=O)[C@@H]1Cc2ccccc2CN1C(=O)[C@@H](NC(=O)c1ccccc1N)C(C)C)C(=O)N[C@@H](CO)C(=O)N[C@@H](Cc1ccc(O)c([N+](=O)[O-])c1)C(=O)N[C@@H](CC(=O)O)C(N)=O [Abz-Val-Tic-hLeu-Ser-Tyr(NO2)-Asp-NH2] (H-[2Abz]V[Tic][hLeu]S[Tyr(3-NO2)]D-NH2) | NS
26 | CCCC[C@H](NC(=O)[C@H](C)N)C(=O)N[C@@H](CO)C(=O)N[C@@H](Cc1ccc(O)c([N+](=O)[O-])c1)C(=O)N[C@@H](CC(=O)O)C(N)=O [H-Ala-Nle-Ser-Tyr(NO2)-Asp-NH2] (H-A[Nle]S[Tyr(3-NO2)]D-NH2) | NS
27 | CC(C)CC[C@H](NC(=O)[C@H](C)NC(=O)[C@@H]1Cc2ccccc2CN1C(=O)c1ccccc1N)C(=O)N[C@@H](CO)C(=O)N[C@@H](Cc1ccc(O)c([N+](=O)[O-])c1)C(=O)N[C@@H](CC(=O)O)C(N)=O [Abz-Tic-Ala-hLeu-Ser-Tyr(NO2)-Asp-NH2] (H-[2Abz][Tic]A[hLeu]S[Tyr(3-NO2)]D-NH2) | NS
28 | CCCC[C@H](NC(=O)[C@H](C)NC(=O)[C@@H](NC(=O)c1ccccc1N)C(C)C)C(=O)N[C@@H](CO)C(=O)N[C@@H](C)C(=O)N[C@@H](CC(=O)O)C(N)=O [Abz-Val-Ala-Nle-Ser-Ala-Asp-NH2] (H-[2Abz]VA[Nle]SAD-NH2) | NM
29 | CC(C)[C@H](NC(=O)c1ccccc1N)C(=O)N[C@@H](C)C(=O)N1C[C@H](O)C[C@H]1C(=O)N[C@@H](CO)C(=O)N[C@@H](Cc1ccc(O)c([N+](=O)[O-])c1)C(=O)N[C@@H](CC(=O)O)C(N)=O [Abz-Val-Ala-Hyp-Ser-Tyr(NO2)-Asp-NH2] (H-[2Abz]VA[Hyp]S[Tyr(3-NO2)]D-NH2) | NS
30 | Abz-2.Naph-Val-Ala-Nle-Ser-Tyr(NO2)-Asp-NH2 | NM
